Columns and labels:
dd strain mice = settings: mouse, in vivo, iv
in vivo = settings: mouse, iv

SMILES	LD50 (dd strain mice)	LD50 (in vivo)
CCCCCCCCCCCCCCCC(=O)OCC(=O)[C@@]1(O)[C@H](C)C[C@H]2[C@@H]3CCC4=CC(=O)C=C[C@]4(C)[C@@]3(F)[C@@H](O)C[C@@]21C [dexamethasone palmitate]	420 mg/kg	580 mg/kg
C[C@@H]1C[C@H]2[C@@H]3CCC4=CC(=O)C=C[C@]4(C)[C@@]3(F)[C@@H](O)C[C@]2(C)[C@@]1(O)C(=O)COP(=O)(O)O [dexamethasone phosphate]	115 mg/kg	140 mg/kg
